Test results reported in patent US12239647B2, “ALS treatment using induced regulatory T (iTREG) cells” (RAPA THERAPEUTICS, LLC, priority 2018, dated 2025).

What was measured:
[1] = test system: human CD4+ and CD8+ T cells; experiment: Western blot for Raptor, Rictor, p70S6K and SGK1 after 3-day de-differentiation culture; type: cell-based; details: combination agent de-differentiation: temsirolimus 1 μM, Vitamin D 0.03 to 1.0 nM, Daclizumab 50 μg/ml; relative to control culture
Text: After the 3-day culture interval, the T cells were harvested, and protein was isolated and subjected to western blot analysis for the mTORC1 complex protein, Raptor; the mTORC2 complex protein, Rictor; the post-mTORC1 protein p70S6K; the post-mTORC2 protein, SGK1; and the housekeeping gene, GAPDH.

[2] = test system: human CD4+ and CD8+ T cells; experiment: T cell yield at day 13 after de-differentiation and re-stimulation without inhibitors; type: cell-based; details: for preferable concentration for T cell yield: de-differentiation interval
Method: After 10 days (13 days of total culture), the T cells were harvested, enumerated, and evaluated by flow cytometry. FIG. 8 illustrates the effect of culture components during the de-differentiation interval on subsequent T cell yield (at day 13 of culture). […] After the 3-day interval, media was exchanged to fresh X-Vivo 20 without inhibitors, high-level co-stimulation was provided (3:1 bead-to-T cell ratio), and the T cell growth cytokines IL-2 (100 IU/ml) and IL-7 (10 ng/ml) were added. At day 13 of culture, viable T cells were enumerated and the overall yield is shown relative to day 0 input number.

CD8+ T cells = experiment: Flow cytometry of CD8+ T cell memory markers after de-differentiation interval; type: cell-based, human; details: reducing or eliminating only temsirolimus from the initial culture interval (columns #5 and 6)
Method: After the 3-day interval, media was exchanged to fresh X-Vivo 20 without inhibitors, high-level co-stimulation was provided (3:1 bead-to-T cell ratio), and the T cell growth cytokines IL-2 (100 IU/ml) and IL-7 (10 ng/ml) were added. T cells were subjected to flow cytometry for evaluation of co-expression of CD8^+, CD62L^+, and CCR7^+ markers (left panel; evaluated at day 10 of culture); and co-expression of CD8^+, CD62L^+, CCR7^+, and CD127^+ markers (right panel; evaluated at day 10 of culture). All results are shown relative to the value of CD8^+ T cells at culture initiation (last column in FIGS. 10A-10B; “Day 0 Input Value”).

CD4+ T cells = experiment: Flow cytometry of CD4+ T cell memory markers after de-differentiation interval; type: cell-based, human
Method: FIGS. 9A-9C illustrate the effect of culture components during the de-differentiation interval on CD4^+ T cell expression of memory markers (at day 13 of culture). […] After the 3-day interval, media was exchanged to fresh X-Vivo 20 without inhibitors, high-level co-stimulation was provided (3:1 bead-to-T cell ratio), and the T cell growth cytokines IL-2 (100 IU/ml) and IL-7 (10 ng/ml) were added. […] All results are shown relative to the value of CD4^+ T cells at culture initiation (last column in FIGS. 9A-9C; “Day 0 Input Value”).

[3] = test system: human CD4+ and CD8+ T cells; experiment: RNA expression of T cell effector molecules after 3-day de-differentiation culture (Luminex Quantigene); type: cell-based; details: 3-day culture, bead:T cell 1:3, temsirolimus 1 μM, Vitamin D 0.1 or 1.0 nM; relative to control Th1/Tc1 culture
Method: (§1) At the end of the de-differentiation interval, cells were harvested, RNA was isolated, and RNA expression analysis was performed by Luminex Quantigene method. All results shown represent relative RNA expression, with results normalized to a value of 1.0 for the Th1/Tc1 control culture.

[4] = test system: human CD4+ and CD8+ T cells; experiment: Cytokine secretion (Luminex) in extended hybrid Th2/TREG culture with temsirolimus or pemetrexed; type: cell-based; details: hybrid TREG-Th2 condition; temsirolimus 1.0 μM or pemetrexed 10 nM
Text: (§2) FIGS. 21A-21D illustrates that extended culture of de-differentiated T cells in the hybrid Th2/TREG polarization condition results in the generation of T cells expressing with a predominant Th2 cytokine phenotype: IL-4, IL-5, and IL-13 secretion. […] At days 12, 20, and 32 of culture, the T cells were harvested, washed, and re-stimulated with 3/28 beads (3:1 ratio) for 24 hr; the resultant supernatant was harvested and tested for cytokine content by Luminex multi-analyte method. All results shown are expressed as cytokine level in pg per ml per 1×10^6 cells/ml/24 hr. The Th2 cytokine IL-10 was also evaluated: all values were less than 20 pg/ml per 1×10^6 cells/ml/24 hr.
as §2, with “22A-22D illustrate” for “21A-21D illustrates”, “IL-2, IFN-γ,” for “IL-4, IL-5,”, “GM-CSF” for “IL-13”, “inflammatory cytokines IL-17 and TNF-α were” for “Th2 cytokine IL-10 was”

[5] = test system: human CD4+ and CD8+ T cells; experiment: RNA expression of de-differentiation transcription factors and IL-7 receptor alpha after 3-day culture (Luminex Quantigene); type: cell-based; details: bead:T cell 1:3, temsirolimus 1 μM, relative to control culture; for IL-7 receptor alpha RNA expression / KLF4 RNA expression / KLF10 RNA expression: Vitamin D 1.0 nM in combination; for Nanog RNA expression: Vitamin D 0.1 or 1.0 nM
Method: as §1

[6] = test system: human CD4+ and CD8+ T cells; experiment: Western blot for mTORC1-related molecule Raptor after 3-day de-differentiation culture; type: cell-based
Text: After the 3-day culture interval, the T cells were harvested, and protein was isolated and subjected to western blot analysis for the mTORC1 complex protein, Raptor, and the housekeeping gene, Actin.

[7] = test system: human CD4+ and CD8+ T cells; experiment: RNA expression of Th1 transcription factors and HIF-1-α after 3-day culture (Luminex Quantigene); type: cell-based; details: bead:T cell 1:3, temsirolimus 1 μM, Vitamin D 0.1 to 1.0 nM, relative to control culture
Method: as §1

[8] = test system: human CD4+ and CD8+ T cells; experiment: Cytokine secretion (Luminex) of de-differentiated T cells cultured in polarization-neutral media; type: cell-based; details: vitamin D 0.01 nM during de-differentiation relative to 0.1 nM
Method: FIGS. 11A-11D depict the inflammatory Th1/Th17 cytokine analysis of cultured de-differentiated T cells in polarization-neutral media. […] After 3-days, the de-differentiated T cells were co-stimulated (typical bead-to-T cell ratio of 3:1) in media supplemented with the T cell growth cytokines rhu IL-2 (100 IU/ml) and rhu IL-7 (10 ng/ml), which are not potent in terms of inducing T cell polarization. After 10 days in culture (total, day 13 of culture), the T cells were harvested, washed, and re-stimulated with 3/28 beads (3:1 ratio) for 24 hr; the resultant supernatant was harvested and tested for cytokine content by Luminex multi-analyte method. All results shown are expressed as cytokine level in pg per ml per 1×10^6 cells/ml/24 hr.
FIGS. 12A-12D depicts the IL-2 and Th2-type cytokine analysis of cultured de-differentiated T cells in polarization-neutral media. […] After 3-days, the de-differentiated T cells were co-stimulated (typical bead-to-T cell ratio of 3:1) in media supplemented with the T cell growth cytokines rhu IL-2 (100 IU/ml) and rhu IL-7 (10 ng/ml), which are not potent in terms of inducing T cell polarization. […] All results shown are expressed as cytokine level in pg per ml per 1×10^6 cells/ml/24 hr.

[9] = test system: human CD4+ and CD8+ T cells; experiment: Western blot for autophagy-related molecule p62 after 3-day de-differentiation culture; type: cell-based; details: 3-day culture, bead:T cell 1:3; temsirolimus 1.0 or 0.3 μM, Vitamin D 0.01-1.0 nM, Daclizumab 50 μg/ml as indicated
Text: The level of autophagy can be determined in-part by the subsequent up-regulation of the autophagy substrate, p62, by western blot analysis.
After the 3-day culture interval, the T cells were harvested, and protein was isolated and subjected to western blot analysis for the autophagy-related gene, p62, and the housekeeping gene, Actin.

[10] = test system: human CD4+ and CD8+ T cells; experiment: Western blot for pro-apoptosis molecule BIM after 3-day de-differentiation culture; type: cell-based; details: 3-day culture, bead:T cell 1:3; Vitamin D 0.1 nM, Daclizumab 50 μg/ml
Text: After the 3-day culture interval, the T cells were harvested, and protein was isolated and subjected to western blot analysis for the pro-apoptosis-related gene, BIM, and the housekeeping gene, Actin.
To assess this, we measured BIM levels in the T cells cultured with a low-strength of co-stimulation (1:3 bead-to-T cell ratio) and presence of the various inhibitors.

Row | Molecule | Rictor expression (western blot, FIG. 6) [1] | preferable concentration for T cell yield [2] | Granzyme B RNA expression [3] | IFN-gamma RNA expression [3] | IL-10 RNA expression [3] | IL-7 receptor alpha RNA expression [5] | KLF4 RNA expression [5] | KLF10 RNA expression [5] | Nanog RNA expression [5] | HIF-1-α RNA expression [7] | STAT1 RNA expression [7] | T-BET RNA expression [7] | further results
1 | CO[C@H]1C[C@@H]2CC[C@@H](C)[C@@](O)(O2)C(=O)C(=O)N2CCCC[C@H]2C(=O)O[C@H]([C@H](C)C[C@@H]2CC[C@@H](OC(=O)C(C)(CO)CO)[C@H](OC)C2)CC(=O)[C@H](C)/C=C(\C)[C@@H](O)[C@@H](OC)C(=O)[C@H](C)C[C@H](C)/C=C/C=C/C=C/1C [temsirolimus] | effective | 1.0 µM | reduction | reduction | reduction | capable of up-regulating | neither temsirolimus nor Vitamin D alone increased | acts alone to beneficially up-regulate | up-regulation | did not down-regulate | acts alone to beneficially down-regulate | acts alone to beneficially down-regulate | T cell yield at day 13 of culture ([2]; temsirolimus concentration reduced to 0.1 μM (column #7)): reduced the resultant T cell yield; frequency of CD8+ triple-positive (CD62L, CCR7, CD127) T cells (CD8+ T cells): greatly reduced the frequency of triple-positive T cells; CD4+ CD45RA+ naïve T cell population (CD4+ T cells; elimination of temsirolimus during the initial culture interval (culture #6)): depletion of the naïve T cell population; frequency of CD4+ triple-positive (CD62L, CCR7, CD127) T cells (CD4+ T cells; reducing or eliminating only temsirolimus from the initial culture interval (columns #5 and 6)): greatly reduced the frequency of triple-positive T cells; IL-5 secretion [4]: blunted; IL-13 secretion [4]: blunted; optimal dose for down-regulation of Raptor ([6]; combination of Vitamin D plus temsirolimus): 1.0 µM; Raptor expression ([6]; temsirolimus 0.3 μM (culture 9), versus 1.0 μM): higher levels of Raptor expression
2 | C=C1/C(=C\C=C2/CCC[C@]3(C)[C@@H]([C@H](C)CCCC(C)(C)O)CC[C@@H]23)C[C@@H](O)C[C@@H]1O [Vitamin D, Calcitriol] | effective | 0.0001 µM | reduction | reduction | reduction | not Vitamin D alone | neither temsirolimus nor Vitamin D alone increased | does not act alone to up-regulate | does not act alone to up-regulate | did not down-regulate | acts alone to beneficially down-regulate | acts alone to beneficially down-regulate | IFN-γ secretion [8]: somewhat higher levels; TNF-α secretion [8]: somewhat higher levels; T cell yield at day 13 of culture ([2]; Vitamin D concentration increased to 1.0 nM (column #6)): very low yield; T cell yield at day 13 of culture ([2]; Vitamin D concentration reduced to 0.01 nM (column #5)): very low yield; p62 expression (western blot, autophagy marker) [9]: increased p62 expression; Raptor expression ([6]; Vitamin D 0.3 nM (culture 7), versus 0.1 nM): higher level of Raptor expression; Raptor inhibition ([6]; Vitamin D level reduced to 0.01 nM): sub-optimal Raptor inhibition
3 | Daclizumab: anti-IL-2 receptor monoclonal antibody (antibody, chains of the INN, looked up, V domains shown) VH: QVQLVQSGAEVKKPGSSVKVSCKASGYTFTSYRMHWVRQAPGQGLEWIGYINPSTGYTEYNQKFKDKATITADESTNTAYMELSSLRSEDTAVYYCARGGGVFDYWGQGTLVTVSS VL: DIQMTQSPSTLSASVGDRVTITCSASSSISYMHWYQQKPGKAPKLLIYTTSNLASGVPARFSGSGSGTEFTLTISSLQPDDFATYYCHQRSTYPLTFGQGTKVEVK | did not abrogate | – | – | – | – | – | – | – | – | – | – | – | BIM expression (western blot, normalized by actin) [10]: beneficial role in suppressing; Raptor expression (western blot, normalized by actin) ([6]; 3-day culture, bead:T cell 1:3, temsirolimus 1.0 μM, Vitamin D 0.1 nM, Daclizumab 50 μg/ml): beneficial role in suppressing
